This is an account of results in patent publication US6117841A, “Substituted peptidylamine calcium channel blockers” (Warner-Lambert Company, priority 1999, dated 2000).

In one test the target is T1, N-type Ca^2+ Channel (Homo sapiens, UniProt Q00975).
T1 construct: host or cells: IMR-32 cells differentiated with dibutyryl cAMP and bromodeoxyuridine
Briefly: Measurement of N-type Ca2+ channel blocking potencies in IMR-32 cells using the fluorescent Ca2+ indicator Indo-1. Type of test: cell-based. To be noted: IMR-32 cells, K+ depolarization, 5 μM nitrendipine to block L-type channels; read-out: IMR 32 IC50. The method in brief:
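IMR-32 cells were differentiated 7–13 days (1 mM dibutyryl cAMP, 2.5 µM BrdU) and Indo-1-loaded. They were preincubated 10 min at 30 °C with compound and 5 µM nitrendipine in HEPES/Tris pH 7.4 HBSS with 0.5% BSA, then KCl/CaCl2-depolarized. The peak-minus-basal 400/490 nm emission ratio gave IC50 by four-parameter logistic fit.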

In a further test the test system is DBA/2 mice. Description: In vivo anticonvulsant activity, sound-induced tonic seizures in DBA/2 mice. To be noted: 30 mg/kg intravenous, tested 15 or 45 minutes after injection. The method, then: A compound of the present invention was dissolved in water using 10% (weight/volume) Emulphor (GAF Corp., Wayne, N.J.) surfactant. Substances were administered by intravenous injection into the retro-orbital venous sinus. All testing was performed 15 minutes or 45 minutes after drug injection. All the male mice, 3-4 weeks old were obtained from Jackson Laboratories Bar Harbour, Me. Immediately before anticonvulsant testing, mice were placed upon a wire mesh, 4 inches square suspended from a steel rod. The square was slowly inverted through 180 degrees and mice observed for 30 seconds. Any mouse falling from the wire mesh was scored as ataxia.
Mice were placed into an enclosed acrylic plastic chamber (21 cm height, approximately 30 cm diameter) with a high-frequency speaker (4 cm diameter) in the center of the top lid. An audio signal generator (Protek model B-810) was used to produce a continuous sinusoidal tone that was swept linearly in frequency between 8 kHz and 16 kHz once each 10 msec. The average sound pressure level (SPL) during stimulation was approximately 100 dB at the floor of the chamber. Mice were placed within the chamber and allowed to acclimatize for 1 minute. DBA/2 mice in the vehicle-treated group responded to the sound stimulus (applied until tonic extension occurred, or for a maximum of 60 sec) with a characteristic seizure sequence consisting of wild running followed by clonic seizures, and later by tonic extension, and finally by respiratory arrest and death in 80% or more of the mice. In vehicle-treated mice, the entire sequence of seizures to respiratory arrest lasts approximately 15-20 seconds.
The incidence of all the seizure phases in the drug-treated and vehicle-treated mice was recorded, and the occurrence of tonic seizures were used for calculatine anticonvulsant ED50 values by probit analysis. Mice were used only once for testing at each time and dose point.

In general, IC50 refers to the midpoint of a concentration-inhibition curve.

T1 sequence (Q00975 whole entry): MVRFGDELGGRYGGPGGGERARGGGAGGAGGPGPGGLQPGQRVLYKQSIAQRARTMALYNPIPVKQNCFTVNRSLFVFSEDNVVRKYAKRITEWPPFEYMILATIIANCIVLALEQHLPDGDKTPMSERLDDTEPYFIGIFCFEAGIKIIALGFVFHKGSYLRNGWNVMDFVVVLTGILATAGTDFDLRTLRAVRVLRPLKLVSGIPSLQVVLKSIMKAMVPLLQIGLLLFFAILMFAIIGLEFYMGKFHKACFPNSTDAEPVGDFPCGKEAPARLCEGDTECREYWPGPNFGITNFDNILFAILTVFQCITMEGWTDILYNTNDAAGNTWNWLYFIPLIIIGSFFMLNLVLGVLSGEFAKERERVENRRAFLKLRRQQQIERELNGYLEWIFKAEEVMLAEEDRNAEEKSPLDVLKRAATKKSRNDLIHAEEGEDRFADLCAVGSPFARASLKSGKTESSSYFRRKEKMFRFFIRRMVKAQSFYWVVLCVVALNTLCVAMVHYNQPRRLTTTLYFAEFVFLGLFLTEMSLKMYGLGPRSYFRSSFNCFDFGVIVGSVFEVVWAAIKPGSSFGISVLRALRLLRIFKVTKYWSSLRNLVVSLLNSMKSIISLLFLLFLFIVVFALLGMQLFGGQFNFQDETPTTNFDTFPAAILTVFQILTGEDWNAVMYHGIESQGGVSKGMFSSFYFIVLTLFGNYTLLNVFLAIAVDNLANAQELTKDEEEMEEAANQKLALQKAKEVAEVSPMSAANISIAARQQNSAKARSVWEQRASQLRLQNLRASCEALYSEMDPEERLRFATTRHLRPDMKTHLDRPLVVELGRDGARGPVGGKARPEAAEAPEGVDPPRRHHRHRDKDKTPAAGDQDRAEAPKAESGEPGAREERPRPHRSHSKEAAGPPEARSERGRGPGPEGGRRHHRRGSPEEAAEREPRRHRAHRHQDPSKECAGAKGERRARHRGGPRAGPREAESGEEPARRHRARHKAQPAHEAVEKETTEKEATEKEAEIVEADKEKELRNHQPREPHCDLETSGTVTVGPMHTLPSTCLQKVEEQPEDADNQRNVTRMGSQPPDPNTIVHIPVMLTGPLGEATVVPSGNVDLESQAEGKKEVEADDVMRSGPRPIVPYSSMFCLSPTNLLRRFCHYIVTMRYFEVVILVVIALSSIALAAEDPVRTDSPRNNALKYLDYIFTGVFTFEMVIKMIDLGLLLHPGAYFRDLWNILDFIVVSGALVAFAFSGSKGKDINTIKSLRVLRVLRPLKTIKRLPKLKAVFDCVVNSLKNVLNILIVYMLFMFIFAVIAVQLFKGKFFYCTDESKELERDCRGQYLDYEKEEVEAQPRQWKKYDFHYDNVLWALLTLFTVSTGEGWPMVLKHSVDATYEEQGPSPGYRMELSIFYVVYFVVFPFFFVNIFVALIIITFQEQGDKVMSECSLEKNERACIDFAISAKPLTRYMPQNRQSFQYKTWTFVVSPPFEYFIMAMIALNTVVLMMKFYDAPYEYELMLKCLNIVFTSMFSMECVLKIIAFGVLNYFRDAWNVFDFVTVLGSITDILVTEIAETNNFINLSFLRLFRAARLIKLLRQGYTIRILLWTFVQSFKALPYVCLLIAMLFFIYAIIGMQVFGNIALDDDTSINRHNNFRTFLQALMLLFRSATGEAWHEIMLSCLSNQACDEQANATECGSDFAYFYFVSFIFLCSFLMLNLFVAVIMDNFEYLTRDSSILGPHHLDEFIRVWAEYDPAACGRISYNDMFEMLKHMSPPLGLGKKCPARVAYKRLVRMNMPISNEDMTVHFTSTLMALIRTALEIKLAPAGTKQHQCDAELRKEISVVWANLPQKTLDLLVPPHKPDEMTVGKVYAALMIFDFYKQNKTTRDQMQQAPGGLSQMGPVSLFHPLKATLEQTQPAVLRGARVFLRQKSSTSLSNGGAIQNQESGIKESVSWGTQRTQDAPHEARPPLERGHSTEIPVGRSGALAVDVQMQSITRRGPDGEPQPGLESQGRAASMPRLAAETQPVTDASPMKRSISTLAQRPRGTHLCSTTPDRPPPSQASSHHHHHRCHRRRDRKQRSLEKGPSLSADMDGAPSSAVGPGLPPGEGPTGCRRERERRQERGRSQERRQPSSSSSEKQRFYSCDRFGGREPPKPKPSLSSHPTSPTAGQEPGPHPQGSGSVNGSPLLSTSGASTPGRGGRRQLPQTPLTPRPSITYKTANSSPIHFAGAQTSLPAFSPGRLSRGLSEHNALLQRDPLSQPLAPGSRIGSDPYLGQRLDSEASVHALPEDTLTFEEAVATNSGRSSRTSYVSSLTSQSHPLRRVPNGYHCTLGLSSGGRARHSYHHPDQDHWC
T1 sequence (P54284 whole entry partner): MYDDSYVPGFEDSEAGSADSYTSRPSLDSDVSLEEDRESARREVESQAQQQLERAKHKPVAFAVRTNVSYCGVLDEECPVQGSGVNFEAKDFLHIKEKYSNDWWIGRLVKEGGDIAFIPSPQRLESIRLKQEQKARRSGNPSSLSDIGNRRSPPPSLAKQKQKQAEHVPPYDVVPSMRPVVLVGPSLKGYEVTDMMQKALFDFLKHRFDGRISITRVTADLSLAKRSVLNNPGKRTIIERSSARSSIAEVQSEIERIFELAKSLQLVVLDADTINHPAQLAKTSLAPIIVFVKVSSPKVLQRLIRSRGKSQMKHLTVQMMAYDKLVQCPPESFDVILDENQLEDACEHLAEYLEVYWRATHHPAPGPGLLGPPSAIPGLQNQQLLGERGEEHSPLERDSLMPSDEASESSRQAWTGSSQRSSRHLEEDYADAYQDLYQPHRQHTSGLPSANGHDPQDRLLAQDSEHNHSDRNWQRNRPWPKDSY
T1 sequence (P54289 25-946 partner limits assumed): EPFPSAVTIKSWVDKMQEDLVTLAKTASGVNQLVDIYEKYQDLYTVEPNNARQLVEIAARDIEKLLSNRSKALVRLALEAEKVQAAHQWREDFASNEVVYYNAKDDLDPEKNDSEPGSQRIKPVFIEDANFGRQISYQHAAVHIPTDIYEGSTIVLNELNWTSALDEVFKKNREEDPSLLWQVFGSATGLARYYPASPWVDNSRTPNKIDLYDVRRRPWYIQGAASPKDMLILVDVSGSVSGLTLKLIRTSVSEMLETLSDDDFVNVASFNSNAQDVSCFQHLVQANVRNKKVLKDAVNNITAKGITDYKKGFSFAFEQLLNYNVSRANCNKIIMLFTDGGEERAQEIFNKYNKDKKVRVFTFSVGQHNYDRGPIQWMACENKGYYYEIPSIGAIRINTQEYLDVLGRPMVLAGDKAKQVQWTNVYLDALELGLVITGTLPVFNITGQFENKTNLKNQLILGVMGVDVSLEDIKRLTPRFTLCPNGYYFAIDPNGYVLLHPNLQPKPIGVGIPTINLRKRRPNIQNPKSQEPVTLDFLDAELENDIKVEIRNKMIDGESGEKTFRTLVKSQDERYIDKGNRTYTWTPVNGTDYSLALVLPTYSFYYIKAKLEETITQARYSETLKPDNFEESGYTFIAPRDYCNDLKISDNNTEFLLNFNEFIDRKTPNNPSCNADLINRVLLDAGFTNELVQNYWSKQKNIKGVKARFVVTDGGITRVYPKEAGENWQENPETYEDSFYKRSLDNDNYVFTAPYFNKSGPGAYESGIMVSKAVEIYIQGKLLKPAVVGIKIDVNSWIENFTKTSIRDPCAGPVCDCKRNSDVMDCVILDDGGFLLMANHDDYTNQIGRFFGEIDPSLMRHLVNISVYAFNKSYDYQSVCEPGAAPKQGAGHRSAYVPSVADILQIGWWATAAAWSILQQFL
T1 sequence (P54289 947-1103 partner limits assumed): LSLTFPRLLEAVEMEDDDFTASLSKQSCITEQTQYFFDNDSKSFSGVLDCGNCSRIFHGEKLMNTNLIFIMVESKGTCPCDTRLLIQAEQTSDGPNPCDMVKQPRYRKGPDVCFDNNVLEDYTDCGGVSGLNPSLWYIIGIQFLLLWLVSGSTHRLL

On to `CC(C)CC(C(=O)NC(Cc1ccc(OCc2ccccc2)cc1)C(=O)NC(C)(C)C)N(C)C1C=CCCC1` (stereo not drawn) [Example 47, [S-(R*,R*)]-2-(Cyclohex-2-enyl-methyl-amino)-4-methyl-pentanoic acid [2-(4-benzyloxy-phenyl)-1-tert-butylcarbamoyl-ethyl]-amide], for which the IC50 at N-type Ca^2+ Channel was determined as 0.28 µM. For the same compound, the “DBA/2 mice % Protection dose @ 30 mg/kg” value with DBA/2 mice is 100%.
The corresponding values for `CC(C)CC(NC(C)C)C(=O)NC(Cc1ccc(OCc2ccccc2)cc1)C(=O)OC(C)(C)C` (stereo not drawn) [Example 92, [S-(R*,R*)]-3-(4-Benzyloxy-phenyl)-2-(2-isopropylamino4-methyl-pentanoylamino)-propionic acid tert-butyl ester] are 0.8 µM and 100%.
